US10457707B2, “Substituted urea depsipeptide analogs as activators of the CLPP endopeptidase” (priority 2015, dated 2019)
*1 amine or outer side, *2 acyl side, *3 side chain or, on linkers, in order; H or OH if unused. Where a SMILES comes first, the peptide text is derived from it. Bridges are numbered along the chain shown (N, C = ends). [ ]: non-standard residue; d: D form. The star is where a group is joined. ξ: configuration not given here. Phe(3,5-F2) = N[C@@H](Cc1cc(F)cc(F)c1)C(=O)O; NH(1-Me-indolin-5-yl) = CN1CCc2cc(N*)ccc21; Morpholine(3S-CO) = O=C(O)[C@@H]1COCCN1; Pro(4R-Me) = C[C@H]1CN[C@H](C(=O)O)C1; Hyp = O=C(O)[C@@H]1C[C@@H](O)CN1; NH(4-Et-phenyl) = CCc1ccc(N*)cc1; Heptenoyl(2E) = CCCC/C=C/C(=O)*; NH(4-Me-phenyl) = Cc1ccc(N*)cc1; ξNMeThr = CNC(C(=O)O)[C@@H](C)O; aThr = C[C@H](O)[C@H](N)C(=O)O; Pip = O=C(O)[C@@H]1CCCCN1; X2 = CN1CCc2ccc(N*)cc21; X4 = c1cc2c(cc1N*)CCC2; X6 = Cc1cc(C)cc(N*)c1; CO = O=C([*:1])[*:2]; X7 = CC/C=C/C(=O)*

The compounds below were run against T1, Sa-ClpP (Staphylococcus aureus, UniProt Q2G036) (assay: Sa-ClpP casein-BODIPY ClpP activation assay, method variant not marked in Table 5). Details: not given.
T1 construct: made in house; host or cells: E. coli BL21(DE3)
T1 sequence (Q2G036 1-195): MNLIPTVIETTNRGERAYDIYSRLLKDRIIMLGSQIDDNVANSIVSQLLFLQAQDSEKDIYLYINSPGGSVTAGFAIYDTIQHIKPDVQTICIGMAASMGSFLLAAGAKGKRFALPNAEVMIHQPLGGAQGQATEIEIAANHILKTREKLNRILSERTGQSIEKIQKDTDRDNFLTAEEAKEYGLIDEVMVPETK
Format: biochemical, S. aureus
Experimental: The compounds were assayed in a casein digestion assay in order to determine their effect on ClpP activation. Briefly, the assay was carried out using S. aureus ClpP (“Sa-ClpP”) overexpressed in E. coli BL21(DE3) and purified in a two-step process. Purity of the protein was assessed through SDS PAGE analysis. EC50 evaluations were conducted in triplicate in a 20 μl assay format using a method adapted from Maurizi et al. (Methods Enzymol. (1994) 244:314-331). Each well contained 10 μM saClpP, 25 μg/ml BODIPY FL casein (Invitrogen Corporation, San Diego, Calif.), and test compound in concentrations ranging between 0-1000 μM in assay buffer (50 mM Tris pH 8, 200 mM KCl, and 1 mM TCEP). The reaction took place at 37° C. Fluorescence (excitation 485 nm; emission 528 nm) was measured in five minute intervals over a 45 min period using a BioTek HT fluorescence microplate reader (BioTek Instruments, Inc., Winooski, Vt.). Velocity of each reaction was calculated and data was fit to a dose response curve using GraphPad Prism® software (GraphPad Software, Inc., La Jolla, Calif.). EC50 is the effective concentration of compound which causes 50% activation of S. aureus ClpP in the foregoing BODIPY FL casein assay.
Alternatively, the assay was carried out using EnzCheck Protease Assay (Molecular Probes, Catalog # E6638). The assay was performed in black 384 well, flat bottom, low volume plates (Greiner Bio-One, Monroe, N.C., catalog #784076). 10 μL of Tris*HCl buffer, pH 8.0 with 0.01% Triton X-100 was pipetted into each well using a Well-Mate (Thermo Scientific, Waltham, Mass.). 0.4 μL test compounds or controls (2% DMSO v/v) were added to each well using a Biomek FX liquid handling robot (Beckman Coulter, Indianapolis Ind.). After addition of test compounds and controls, 10 μL of master mix containing 2 μM Sa-ClpP and 2 μM substrate (Bodipy-FL labeled casein) in Tris*HCl buffer, pH 8.0 with 0.01% (v/v) Triton X-100, was pipetted into each well. All assays were performed in triplicate, under linear velocity conditions. Increase in fluorescent signal following activation of Sa-ClpP by test compounds and controls was measured over time period of 30 mins using filters with excitation at 485±15 nm and emission at 520±25 nm on a PHERAstar FS Multilabel reader (BMG, Cary, N.C.). […] Data analysis was done by measuring rate of casein degradation over time (slopes). Computed degradation rates (slopes) were normalized to positive (ADEP4) or negative (DMSO) controls. Using nonlinear regression curve fitting EC50 values and % activation were determined using the equation “log [agonist] vs. Response-variable slope (four parameters)-symmetrical” in the program Prism 6 (GraphPad Software, La Jolla, Calif. USA, www.graphpad.com).
Substituted urea depsipetide analogs were synthesized as described above. The EC50 for ClpP activation was determined in the Sa-ClpP in casein-BODIPY assay as described above. The IC50 for ADEP displacement was determined in the ADEP displacement fluorescent polarization assay as described above; and the IC50 for growth inhibition was determined in the Vero cell cytotoxicity assay as described above. The compound number corresponds to the compound numbers used in Tables 1-4 and the experimental examples described above.

Compound	EC50
Cc1cc(C)cc(NC(=O)N[C@@H](Cc2cc(F)cc(F)c2)C(=O)N[C@@H]2C(=O)N3CCC[C@H]3C(=O)N3CCCC[C@H]3C(=O)N[C@@H](C)C(=O)N3C[C@H](C)C[C@H]3C(=O)O[C@H]2C)c1 [Compound 304, (S)-3-(3,5-difluorophenyl)-2-(3-(3,5-dimethylphenyl)ureido)-N-((2R,6S,8aS,14aS,20S,21S,23aS)-2,6,21-trimethyl-5,8,14,19,23-pentaoxooctadecahydro-1H,5H,14H,19H-pyrido[2,1-i]dipyrrolo[2,1-c:2′,1′-l][1]oxa[4,7,10,13]tetraazacyclo-hexadecin-20-yl)propanamide] ({X6-CO}-[Phe(3,5-F2)][aThr]P[Pip]A[Pro(4R-Me)]; ester 2-C)	380 ± 10 nM
CCc1ccc(NC(=O)N[C@@H](Cc2cc(F)cc(F)c2)C(=O)N[C@@H]2C(=O)N3C[C@H](O)C[C@H]3C(=O)N3CCCC[C@H]3C(=O)N[C@@H](C)C(=O)N3C[C@H](C)C[C@H]3C(=O)O[C@H]2C)cc1 [Compound 211, (S)-3-(3,5-difluorophenyl)-2-(3-(4-ethylphenyl)ureido)-N-((2R,6S,8aS,14aS,16R,20S,21S,23aS)-16-hydroxy-2,6,21-trimethyl-5,8,14,19,23-pentaoxooctadecahydro-1H,5H,14H,19H-pyrido[2,1-i]dipyrrolo[2,1-c:2′,1′-l][1]oxa[4,7,10,13]tetraazacyclohexadecin-20-yl)propanamide] ({NH(4-Et-phenyl)-CO}-[Phe(3,5-F2)][aThr][Hyp][Pip]A[Pro(4R-Me)]; ester 2-C)	500 ± 10 nM
CCc1ccc(NC(=O)N[C@@H](Cc2cc(F)cc(F)c2)C(=O)N[C@@H]2C(=O)N3C[C@H](O)C[C@H]3C(=O)N3CCOC[C@H]3C(=O)N[C@@H](C)C(=O)N3C[C@H](C)C[C@H]3C(=O)O[C@H]2C)cc1 [Compound 320, (S)-3-(3,5-difluorophenyl)-2-(3-(4-ethylphenyl)ureido)-N-((6aS,8R,12S,13S,15aS,17R,21S,23aS)-8-hydroxy-13,17,21-trimethyl-6,11,15,20,23-pentaoxooctadecahydro-6H,11H,15H-[1,4]oxazino[3,4-i]dipyrrolo[2,1-c:2′,1′-l][1]oxa[4,7,10,13]-tetraazacyclohexadecin-12-yl)propanamide] ({NH(4-Et-phenyl)-CO}-[Phe(3,5-F2)][aThr][Hyp][Morpholine(3S-CO)]A[Pro(4R-Me)]; ester 2-C)	330 ± 100 nM

Same assay, conditions: values without ** or † mark; assay variant not stated; read-out: ClpP Activation EC50

Compound	EC50
CCCC/C=C/C(=O)N[C@@H](Cc1cc(F)cc(F)c1)C(=O)N[C@@H]1C(=O)N2C[C@H](O)C[C@H]2C(=O)N2CCCC[C@H]2C(=O)N[C@@H](C)C(=O)N2C[C@H](C)C[C@H]2C(=O)O[C@H]1C [Compound 301, (E)-N—((S)-3-(3,5-difluorophenyl)-1-(((2R,6S,8aS,14aS,16R,20S,21S,23aS)-16-hydroxy-2,6,21-trimethyl-5,8,14,19,23-pentaoxooctadecahydro-1H,5H,14H,19H-pyrido[2,1-i]dipyrrolo[2,1-c:2′,1′-l][1]oxa[4,7,10,13]tetraazacyclohexadecin-20-yl)amino)-1-oxopropan-2-yl)hept-2-enamide] ({Heptenoyl(2E)}-[Phe(3,5-F2)][aThr][Hyp][Pip]A[Pro(4R-Me)]; ester 2-C)	420 ± 10 nM
Cc1ccc(NC(=O)N[C@@H](Cc2cc(F)cc(F)c2)C(=O)N[C@H]2COC(=O)[C@@H]3C[C@@H](C)CN3C(=O)[C@H](C)NC(=O)[C@@H]3COCCN3C(=O)[C@@H]3C[C@@H](O)CN3C2=O)cc1 [Compound 317, (S)-3-(3,5-difluorophenyl)-N-((6aS,8R,12S,15aS,17R,21S,23aS)-8-hydroxy-17,21-dimethyl-6,11,15,20,23-pentaoxooctadecahydro-6H,11H,15H-[1,4]oxazino[3,4-i]dipyrrolo[2,1-c:2′,1′-l][1]oxa[4,7,10,13]tetraazacyclohexadecin-12-yl)-2-(3-(p-tolyl)ureido)propanamide] ({NH(4-Me-phenyl)-CO}-[Phe(3,5-F2)]S[Hyp][Morpholine(3S-CO)]A[Pro(4R-Me)]; ester 2-C)	380 ± 30 nM
C[C@@H]1C[C@H]2C(=O)O[C@@H](C)[C@H](NC(=O)[C@H](Cc3cc(F)cc(F)c3)NC(=O)Nc3ccc4c(c3)CCC4)C(=O)N3CCC[C@H]3C(=O)N3CCCC[C@H]3C(=O)N[C@@H](C)C(=O)N2C1 [Compound 302, (S)-3-(3,5-difluorophenyl)-2-(3-(2,3-dihydro-1H-INDEN-5-yl)ureido)-N-((2R,6S,8aS,14aS,20S,21S,23aS)-2,6,21-trimethyl-5,8,14,19,23-pentaoxooctadecahydro-1H,5H,14H,19H-pyrido[2,1-i]dipyrrolo[2,1-c:2′,1′-l][1]oxa[4,7,10,13]tetraazacyclohexadecin-20-yl)propanamide] ({X4-CO}-[Phe(3,5-F2)][aThr]P[Pip]A[Pro(4R-Me)]; ester 2-C)	480 ± 10 nM
C[C@@H]1C[C@H]2C(=O)O[C@@H](C)[C@H](NC(=O)[C@H](Cc3cc(F)cc(F)c3)NC(=O)Nc3ccc4c(c3)N(C)CC4)C(=O)N3CCC[C@H]3C(=O)N3CCCC[C@H]3C(=O)N[C@@H](C)C(=O)N2C1 [Compound 321, (S)-3-(3,5-difluorophenyl)-2-(3-(1-methylindolin-6-yl)ureido)-N-((2R,6S,8aS,14aS,20S,21S,23aS)-2,6,21-trimethyl-5,8,14,19,23-pentaoxooctadecahydro-1H,5H,14H,19H-pyrido[2,1-i]dipyrrolo[2,1-c:2′,1′-l][1]oxa[4,7,10,13]tetraazacyclo-hexadecin-20-yl)propanamide] ({X2-CO}-[Phe(3,5-F2)][aThr]P[Pip]A[Pro(4R-Me)]; ester 2-C)	520 ± 20 nM
Cc1ccc(NC(=O)N[C@@H](Cc2cc(F)cc(F)c2)C(=O)N[C@H]2COC(=O)[C@@H]3C[C@@H](C)CN3C(=O)[C@H](C)NC(=O)C([C@@H](C)O)N(C)C(=O)[C@@H]3CCCN3C2=O)cc1 (stereo partly drawn) [Compound 322, (S)-3-(3,5-difluorophenyl)-N-((2R,6S,9R,11aS,17S,20aS)-9-((R)-1-hydroxyethyl)-2,6,10-trimethyl-5,8,11,16,20-pentaoxohexadecahydro-1H,5H,16H-dipyrrolo[2,1-c:2′,1′-l][1]oxa[4,7,10,13]tetraazacyclohexadecin-17-yl)-2-(3-(p-tolyl)ureido)propanamide] ({NH(4-Me-phenyl)-CO}-[Phe(3,5-F2)]SP[ξNMeThr]A[Pro(4R-Me)]; ester 2-C)	560 ± 30 nM
CC/C=C/C(=O)N[C@@H](Cc1cc(F)cc(F)c1)C(=O)N[C@@H]1C(=O)N2C[C@H](O)C[C@H]2C(=O)N2CCCC[C@H]2C(=O)N[C@@H](C)C(=O)N2C[C@H](C)C[C@H]2C(=O)O[C@H]1C [Compound 300] (X7-[Phe(3,5-F2)][aThr][Hyp][Pip]A[Pro(4R-Me)]; ester 2-C)	440 ± 30 nM
C[C@@H]1C[C@H]2C(=O)O[C@@H](C)[C@H](NC(=O)[C@H](Cc3cc(F)cc(F)c3)NC(=O)Nc3ccc4c(c3)CCN4C)C(=O)N3CCC[C@H]3C(=O)N3CCOC[C@H]3C(=O)N[C@@H](C)C(=O)N2C1 [Compound 312, (S)-3-(3,5-difluorophenyl)-2-(3-(1-methylindolin-5-yl)ureido)-N-((6aS,12S,13S,15aS,17R,21S,23aS)-13,17,21-trimethyl-6,11,15,20,23-pentaoxooctadecahydro-6H,11H,15H-[1,4]oxazino[3,4-i]dipyrrolo[2,1-c:2′,1′-l][1]oxa[4,7,10,13]tetraazacyclo-hexadecin-12-yl)propanamide] ({NH(1-Me-indolin-5-yl)-CO}-[Phe(3,5-F2)][aThr]P[Morpholine(3S-CO)]A[Pro(4R-Me)]; ester 2-C)	440 ± 20 nM
